# Patent US10952940B2, “Reagents and methods for mineralization of tooth enamel” (UNIVERSITY OF WASHINGTON, priority 2016, dated 2021)
# Experiment: In vitro re-mineralization of tea-stained rat tooth using the peptide solution
# Settings: tea-stained rat tooth quarter; peptide 10 min 37° C., then CaCl2/KH2PO4 16 hours
# Method: Rat teeth (molars) were obtained from sacrificed rats (for example, Sprague Dawley rats, age 3 weeks or older) from animal facility, collected, and stored in 100% alcohol. Prior to the re-mineralization experiments the teeth were stored in 1% bleach for 24 hours. […] The teeth were then dried in an incubator in air at 37° C. for 3-6 hours to produce dry surface. The root site and section the crown were removed vertically using a diamond blade. Pictures were taken with camera attached to optical microscope. Exposed dentine sites in the one half of the sectioned tooth were etched with 35% phosphoric acid (Ultraetch™) for 60 seconds (to facilitate the stain intake). The etching gel was removed by rinsing the sample with distilled water for 3 minutes. The staining solution was prepared by boiling 2 g of tea in 100 ml of deionized water for 5 minutes, and then cooled down to room temperature and filtered. The tooth sample was soaked in the staining solution and incubated at 37° C. at 150 rpm for 24 hours. The tooth was removed from the staining solution and sonicated for 30 seconds in deionized water (sonic bath) to remove the excess amount of tea particles attached to tooth extrinsically. The one half of the sectioned tooth was cut vertically into half again to form two quarter sections of the tooth. A second set of pictures were taken with camera attached to optical microscope. […]
sequence,measurement,value
"SYENSHSQAINVDRT [shADP5, 15-amino acid long amelogenin-derived peptide, shortened human ADP5]",tooth color compared with control,lighter in color than the control
